Measurements from US7709471B2, “Compounds” (AstraZeneca AB, priority 2006, dated 2010).

Key:
[1] = molecular target: recombinant Plk1 (Homo sapiens, UniProt P53350); test: In Vitro Plk1 Enzyme Assay (SPA, GST-Cdc25C phosphorylation); format: biochemical; details: ATP 64 nM, 90 minutes, read-out: IC50 (Plk1 enzyme inhibition)
[2] = tested on: human colon tumour cell line HT29; test: Cellular Assay (phosphohistone H3 Ser10 mitotic marker, HT29); format: cell-based; details: HT-29, 24 h, HT29 cells, read-out: IC50 (cellular assay, phosphohistone H3)
Protocol: Chromosome condensation in mitosis is accompanied by phosphorylation of histone H3 on serine 10.
After 24 hours, cells were fixed in 3.7% (v/v) formaldehyde then permeabilised and blocked for 10 minutes in 100 μl 0.5% (v/v) Triton X-100, 1% (w/v) bovine serum albumin (BSA) in phosphate buffered saline (PBS). […] The raw assay data were analysed by non-linear regression analysis and used to determine an IC50 value for each compound.

Sequence of recombinant Plk1 (P53350 whole entry): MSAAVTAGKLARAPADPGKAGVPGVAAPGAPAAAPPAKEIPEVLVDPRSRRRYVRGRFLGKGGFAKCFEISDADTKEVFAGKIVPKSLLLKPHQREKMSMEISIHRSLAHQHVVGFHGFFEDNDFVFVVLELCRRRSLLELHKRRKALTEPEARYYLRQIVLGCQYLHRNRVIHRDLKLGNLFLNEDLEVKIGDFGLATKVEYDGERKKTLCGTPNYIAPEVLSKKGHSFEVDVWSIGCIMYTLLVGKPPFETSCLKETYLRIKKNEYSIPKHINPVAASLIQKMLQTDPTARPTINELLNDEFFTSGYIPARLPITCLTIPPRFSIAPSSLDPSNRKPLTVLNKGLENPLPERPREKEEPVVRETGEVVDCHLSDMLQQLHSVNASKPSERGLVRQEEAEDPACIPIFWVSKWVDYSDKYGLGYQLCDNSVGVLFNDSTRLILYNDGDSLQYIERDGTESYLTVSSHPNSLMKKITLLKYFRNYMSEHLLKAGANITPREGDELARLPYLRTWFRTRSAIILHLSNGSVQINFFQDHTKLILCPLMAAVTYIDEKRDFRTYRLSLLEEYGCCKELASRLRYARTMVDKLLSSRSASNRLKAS

| Compound | IC50 [1] | IC50 [2] |
| --- | --- | --- |
| CNC(=O)c1ccc(Nc2ncc3c(n2)N(C2CCCC2)CCC(=O)N3C)c(OCCOC)c1 [Example 196, 4-[(6-cyclopentyl-2-methyl-3-oxo-2,6,8,10-tetrazabicyclo[5.4.0]undeca-8,10,12-trien-9-yl)amino]-3-(2-methoxyethoxy)-N-methyl-benzamide] | < 1 µM | – |
| CN1CCC(NC(=O)c2csc(Nc3ncc4c(n3)N(C3CCCC3)CCC(=O)N4C)n2)CC1 [Example 261, 2-[(6-cyclopentyl-2-methyl-3-oxo-2,6,8,10-tetrazabicyclo[5.4.0]undeca-8,10,12-trien-9-yl)amino]-N-(1-methyl-4-piperidyl)1,3-thiazole-4-carboxamide] | < 100 µM | – |
| COc1ccc(Nc2ncc3c(n2)N(C2CCCC2)CCC(=O)N3C)cc1 [Example 120, 6-cyclopentyl-9-[(4-methoxyphenyl)amino]-2-methyl-2,6,8,10-tetrazabicyclo[5.4.0]undeca-8,10,12-trien-3-one] | < 100 µM | – |
| COc1cc(C(=O)O)ccc1Nc1ncc2c(n1)N(C1CCCC1)CCC(=O)N2C [Example 111, 4-[(2-cyclopentyl-6-methyl-5-oxo-2,6,9,11-tetrazabicyclo[5.4.0]undeca-7,9,11-trien-10-yl)amino]-3-methoxy-benzoic acid] | < 0.3 µM | – |
| CSc1ccccc1Nc1ncc2c(n1)N(C1CCCC1)CCC(=O)N2C [Example 141, 6-cyclopentyl-2-methyl-9-[(2-methylsulfanylphenyl)amino]-2,6,8,10-tetrazabicyclo[5.4.0]undeca-8,10,12-trien-3-one] | < 100 µM | – |
| COc1cc(C(=O)NC2CCN(C)CC2)ccc1Nc1ncc2c(n1)N(Cc1csc(C)n1)CCC(=O)N2C [Example 216, 3-methoxy-4-[[2-methyl-6-[(2-methyl1,3-thiazol-4-yl)methyl]-3-oxo-2,6,8,10-tetrazabicyclo[5.4.0]undeca-7,9,11-trien-9-yl]amino]-N-(1-methyl-4-piperidyl)benzamide] | < 1 µM | – |
| CNS(=O)(=O)c1ccccc1Nc1ncc2c(n1)N(C1CCCC1)CCC(=O)N2C [Example 155, 2-[(6-cyclopentyl-2-methyl-3-oxo-2,6,8,10-tetrazabicyclo[5.4.0]undeca-8,10,12-trien-9-yl)amino]-N-methyl-benzenesulfonamide] | < 100 µM | – |
| CC(C)N1CCC(=O)N(C)c2cnc(Nc3ccc(C(=O)NCC(C)(C)CN(C)C)cc3)nc21 [Example 222, N-(3-dimethylamino-2,2-dimethyl-propyl)-4-[(2-methyl-3-oxo-6-propan-2-yl-2,6,8,10-tetrazabicyclo[5.4.0]undeca-7,9,11-trien-9-yl)amino]benzamide] | < 0.3 µM | – |
| CN1C(=O)CCN(C2CCCC2)c2nc(Nc3ccncc3)ncc21 [Example 268, 6-cyclopentyl-2-methyl-9-(pyridin-4-ylamino)-2,6,8,10-tetrazabicyclo[5.4.0]undeca-8,10,12-trien-3-one] | < 100 µM | – |
| CC(C)c1ccccc1Nc1ncc2c(n1)N(C1CCCC1)CCC(=O)N2C [Example 150, 6-cyclopentyl-2-methyl-9-[(2-propan-2-ylphenyl)amino]-2,6,8,10-tetrazabicyclo[5.4.0]undeca-8,10,12-trien-3-one] | < 1 µM | – |
| CCc1cccc(Nc2ncc3c(n2)N(C2CCCC2)CCC(=O)N3C)c1 [Example 166, 6-cyclopentyl-9-[(3-ethylphenyl)amino]-2-methyl-2,6,8,10-tetrazabicyclo[5.4.0]undeca-8,10,12-trien-3-one] | < 100 µM | – |
| CN(C)CCOc1ccc(Nc2ncc3c(n2)N(C2CCCC2)CCC(=O)N3C)cc1 [Example 118, 6-cyclopentyl-9-[[4-(2-dimethylaminoethoxy)phenyl]amino]-2-methyl-2,6,8,10-tetrazabicyclo[5.4.0]undeca-8,10,12-trien-3-one] | < 100 µM | – |
| Cc1nc(Nc2ncc3c(n2)N(C2CCCC2)CCC(=O)N3C)sc1C(=O)NC1CCN(C)CC1 [Example 262, 2-[(6-cyclopentyl-2-methyl-3-oxo-2,6,8,10-tetrazabicyclo[5.4.0]undeca-8,10,12-trien-9-yl)amino]-4-methyl-N-(1-methyl-4-piperidyl)1,3-thiazole-5-carboxamide] | < 1 µM | – |
| CN1C(=O)CCN(C2CCCC2)c2nc(Nc3ccc(N4CCOCC4)cc3)ncc21 [Example 121, 6-cyclopentyl-2-methyl-9-[(4-morpholin-4-ylphenyl)amino]-2,6,8,10-tetrazabicyclo[5.4.0]undeca-8,10,12-trien-3-one] | < 100 µM | – |
| CN1C(=O)CCN(C2CCCC2)c2nc(Nc3ccccc3S(N)(=O)=O)ncc21 [Example 145, 2-[(6-cyclopentyl-2-methyl-3-oxo-2,6,8,10-tetrazabicyclo[5.4.0]undeca-8,10,12-trien-9-yl)amino]benzenesulfonamide] | < 100 µM | – |
| CN1C(=O)CCN(C2CCCC2)c2nc(Nc3cccc(C#N)c3)ncc21 [Example 164, 3-[(6-cyclopentyl-2-methyl-3-oxo-2,6,8,10-tetrazabicyclo[5.4.0]undeca-8,10,12-trien-9-yl)amino]benzonitrile] | < 100 µM | – |
| COCC(C)N1CCC(=O)Nc2cnc(Nc3ccc(C(=O)NC4CCN(C)CC4)cc3OC)nc21 (centres unmarked) [Example 258, 3-methoxy-4-[[6-(1-methoxypropan-2-yl)-3-oxo-2,6,8,10-tetrazabicyclo[5.4.0]undeca-7,9,11-trien-9-yl]amino]-N-(1-methyl-4-piperidyl)benzamide] | < 100 µM | – |
| COc1cc(C(=O)NC2CCN(C)CC2)ccc1Nc1ncc2c(n1)N(c1ccccc1)CCC(=O)N2 [Example 251, 3-methoxy-N-(1-methyl-4-piperidyl)-4-[(3-oxo-6-phenyl-2,6,8,10-tetrazabicyclo[5.4.0]undeca-8,10,12-trien-9-yl)amino]benzamide] | < 100 µM | – |
| COc1cc(C(=O)NCCN2CCCC2)ccc1Nc1ncc2c(n1)N(C(C)C)CC(C)(C)C(=O)N2C [Example 301, 3-methoxy-N-(2-pyrrolidin-1-ylethyl)-4-[(4,4,6-trimethyl-5-oxo-2-propan-2-yl-2,6,9,11-tetrazabicyclo[5.4.0]undeca-7,9,11-trien-10-yl)amino]benzamide] | – | < 1 µM |
| COc1cc(C(=O)NCC(C)(C)CN2CCCC2)ccc1Nc1ncc2c(n1)N(C1CCCC1)CC1(CC1)C(=O)N2C [Example 401, 4-(9′-cyclopentyl-5′-methyl-6′-oxo-5′,6′,8′,9′-tetrahydrospiro[cyclopropane-1,7′-pyrimido[5,4-b][1,4]diazepine]-2′-ylamino)-N-(2,2-dimethyl-3-pyrrolidin-1-yl-propyl)-3-methoxy-benzamide] | – | < 0.3 µM |
| CCN1CCC(NC(=O)c2cc(OC)c(Nc3ncc4c(n3)N(C3CCCCC3)CCC(=O)N4C)cc2F)CC1 [Example 422, 4-[(2-cyclohexyl-6-methyl-5-oxo-2,6,9,11-tetrazabicyclo[5.4.0]undeca-7,9,11-trien-10-yl)amino]-N-(1-ethyl-4-piperidyl)-2-fluoro-5-methoxy-benzamide] | – | < 0.3 µM |
| COc1cc(C(=O)NCC2(CN3CCCC3)CC2)c(F)cc1Nc1ncc2c(n1)N(C1CCCC1)CC1(CC1)C(=O)N2C [Example 405, 4-(9′-cyclopentyl-5′-methyl-6′-oxo-5′,6′,8′,9′-tetrahydrospiro[cyclopropane-1,7′-pyrimido[5,4-b][1,4]diazepine]-2′-ylamino)-2-fluoro-5-methoxy-N-[[1-(pyrrolidin-1-ylmethyl)cyclopropyl]methyl]benzamide] | – | < 1 µM |
| CN1CCC(NC(=O)c2ccc(Nc3ncc4c(n3)N(C3CCCCC3)CC3(CC3)C(=O)N4C)c(F)c2)CC1 [Example 446, 4-(9′-cyclohexyl-5′-methyl-6′-oxo-5′,6′,8′,9′-tetrahydrospiro[cyclopropane-1,7′-pyrimido[5,4-b][1,4]diazepine]-2′-ylamino)-3-fluoro-N-(1-methyl-4-piperidyl)benzamide] | – | < 0.3 µM |
| CCOc1cc(C(=O)N[C@@H]2CCN(C)C2)ccc1Nc1ncc2c(n1)N(C(C)C)CC(C)(C)C(=O)N2C [Example 293, 3-ethoxy-N-[(3R)-1-methylpyrrolidin-3-yl]-4-[(4,4,6-trimethyl-5-oxo-2-propan-2-yl-2,6,9,11-tetrazabicyclo[5.4.0]undeca-7,9,11-trien-10-yl)amino]benzamide] | – | < 1 µM |
| COc1cc(C(=O)NCCN(C)C)ccc1Nc1ncc2c(n1)N(C1CCCC1)CC(C)(C)C(=O)N2C [Example 359, 4-[(2-cyclopentyl-4,4,6-trimethyl-5-oxo-2,6,9,11-tetrazabicyclo[5.4.0]undeca-7,9,11-trien-10-yl)amino]-N-(2-dimethylaminoethyl)-3-methoxy-benzamide] | – | < 0.3 µM |
| CN1C(=O)CCN(C2CCCC2)c2nc(Nc3cccc(-c4ccccc4)c3)ncc21 [Example 171, 6-cyclopentyl-2-methyl-9-[(3-phenylphenyl)amino]-2,6,8,10-tetrazabicyclo[5.4.0]undeca-8,10,12-trien-3-one] | – | < 30 µM |
| COc1cc(C(=O)NC2C[C@H]3CCC[C@@H](C2)N3C)c(F)cc1Nc1ncc2c(n1)N(C1CCCCC1)CCC(=O)N2C (stereo partly drawn) [Example 427, 4-[(2-cyclohexyl-6-methyl-5-oxo-2,6,9,11-tetrazabicyclo[5.4.0]undeca-7,9,11-trien-10-yl)amino]-2-fluoro-5-methoxy-N-[(1R,5S)-9-methyl-9-azabicyclo[3.3.1]non-7-yl]benzamide] | – | < 0.3 µM |
| COc1cc(C(=O)N[C@@H]2CCN(C)C2)c(F)cc1Nc1ncc2c(n1)N(C1CCCC1)CC(C)(C)C(=O)N2C [Example 364, 4-[(2-cyclopentyl-4,4,6-trimethyl-5-oxo-2,6,9,11-tetrazabicyclo[5.4.0]undeca-7,9,11-trien-10-yl)amino]-2-fluoro-5-methoxy-N-[(3R)-1-methylpyrrolidin-3-yl]benzamide] | – | < 0.3 µM |
| COc1cc(C(=O)NCC(C)(C)CN(C)C)ccc1Nc1ncc2c(n1)N(C(C)C)CC1(CC1)C(=O)N2C [Example 313, N-(3-(dimethylamino)-2,2-dimethylpropyl)-4-(9′-isopropyl-5′-methyl-6′-oxo-5′,6′,8′,9′-tetrahydrospiro[cyclopropane-1,7′-pyrimido[5,4-b][1,4]diazepine]-2′-ylamino)-3-methoxybenzamide] | – | < 0.3 µM |
